Assay results from patent US20250034127A1, “AUTOPHAGY INDUCING COMPOUNDS AND USES THEREOF, IN PARTICULAR FOR DISEASES OF THE CNS” (Samsara Therapeutics Inc., priority 2021, published 2025).

Columns and labels:
[1] = system: Human osteosarcoma U2OS cells; test: Assay to measure lysosome and autolysosome (acidic vesicle) formation in U2OS cells; type: cell-based; details: Homo sapiens, concentration of 0.8 μM, read-out: Activity (percentage increase in acidic vesicle formation over the DMSO-treated control)
Description: Lysosomes play a fundamental role in the autophagic pathway by fusing with autophagosomes and creating ‘autolysosomes’ in order to digest their contents. Stimulation of lysosome and autolysosome formation by a compound is indicative of a stimulation of autophagy. The ability of compounds to stimulate lysosome and autolysosome formation, and thus autophagy, in live cells was assessed via fluorescent microscopy using various fluorescent stains for labelling and tracking acidic organelles (including lysosomes and autolysosomes) such as: LysoView™ 650 (70059 and 70059-T, Biotium), Lyso View™633 (70058 and 70058-T, Biotium) and LysoTracker™ Deep Red (L12492, ThermoFisher Scientific). The cellular phenotype was quantitatively assessed for the induction of acidic vesicle formation and compared to a non-treated control, thus providing a measure of the ability of the compound under investigation to stimulate autophagy.
Representative procedure using LysoView™ 633 dye or LysoTracker™ Deep Red dye: Human osteosarcoma U2OS cells (40,000 cells/well) were seeded in a 24 well glass bottom plate (Sensoplate, Greiner Bio-One) and were incubated overnight in a humidified atmosphere at 37° C. and 5% CO2. Cells were grown in DMEM (Gibco) supplemented with 10% Fetal Bovine Serum (FBS) and 100 units/ml penicillin and 100 μg/ml streptomycin (Invitrogen). After the attachment period, cells were treated with different compounds of interest (at various concentrations in DMSO) or DMSO (non-treated control) in cell culture medium and were incubated for 24 hours. Compound-containing medium was removed and cells were incubated with pre-warmed cell culture medium containing 1× Lyso View™ 633 (70058 and 70058-T, Biotium) or 50 nM LysoTracker™ Deep Red (L12492, ThermoFisher Scientific) for 45 minutes at 37° C. Finally, cell nuclei were stained for 10 minutes using Hoechst 33342 (1 μg/mL) and then the medium was replaced with fresh medium. The 24 well plate was then fitted into a heated stage on the microscope and cells maintained at 37° C. Images were captured using appropriate filter set for Cy5 and DAPI detection with the EVOS M7000 Microscope (ThermoFisher Scientific). The cellular phenotype was visually assessed for the induction of acidic vesicle formation relative to the non-treated control; multiple images were acquired and analysed using ImageJ or Cell Profiler.

[2] = system: C57BL/6JRj mice injured by intra-nigral injections of α-syn combined with conduritol B epoxide; test: Mouse model of Parkinson's disease (intra-nigral α-syn plus CBE); type: in vivo; details: 30 mg/kg per os twice a day
Source text: This model (run by Neuro-Sys SAS, France) uses C57BL/6JRj mice injured by intra-nigral injections of a solution containing protofibrils of alpha-synuclein (α-syn, precisely quantified by automatic Western Blot) and combined with pharmacological inhibition of GBA by conduritol B epoxide, in aged mice. The model reproduces essential neuropathological features of PD (e.g. loss of dopaminergic neurons, α-syn aggregation, endoplasmic reticulum [ER] stress) and the neuroinflammatory response (microglia activation and release of proinflammatory cytokines) in the nigra striata area.
Animal characteristics: • Type of animal: C57BL/6JRj (Male) • Age: 18 months old • Supplier: Janvier Labs • Animal number: 7 mice per group • Acclimation and clinical signs: Animals arrived on site 7 days (one week) before the experiment to allow optimal acclimation.
• Test compound dose and administration: 30 mg/kg, per os (gavage or drinking water), twice a day • Test compound treatment: The test compound was solubilized (vehicle=water), aliquoted and stored at −20° C. Aliquots were thawed overnight at 4° C. and given twice a day (morning and afternoon). Treatment started on the day of the stereotaxic injections of α-syn preparation (Day 0). Treatment was administrated until the last day of the experiment (Day 28; =day of dissection). • CBE dose and administration: 50 mg/kg, Intraperitoneal (i.p.), twice a day. • CBE treatment: Administration of CBE (vehicle=saline [NaCl 0.9%] started on the day of the stereotaxic injections of α-syn preparation (Day 0). Treatment was administrated until the last day of the experiment (Day 28; =day of dissection), • Untreated control: vehicle (saline; i.p.) administered twice a day, […]
For overall evaluation and body mass, mice were observed daily, and body mass was monitored prior the morning drug administration. […]

[3] = day 28, compared to the α-syn/CBE injured group

SMILES: CCN1CCC(N(C)C(=O)c2csc(-c3cnn(-c4ccccc4)c3)n2)CC1 [Compound 196, N-(1-ethylpiperidin-4-yl)-N-methyl-2-(1-phenyl-1H-pyrazol-4-yl)-1,3-thiazole-4-carboxamide]
- activation at 0.8 µM [1]: 30 to 50%
- body mass of the animals ([2]; after 4 weeks of treatment): did not significantly modify
- decrease in the number of Iba1-positive microglial cells in the SNpc [2, 3]: > 15%
- increase in the number of dopaminergic TH positive neurons in the SNpc [2, 3]: > 60%
